Source: paper PMC9030254, “Target Hopping from Protein Kinases to PXR: Identification of Small-Molecule Protein Kinase Inhibitors as Selective Modulators of Pregnane X Receptor from TüKIC Library” (Cells, 2022)

Experiments:
Assay in all cases: Kinase profiling
Type in all cases: biochemical
VRK1 = molecular target: T1, VRK1 (Homo sapiens, UniProt Q99986)
T1 construct: purchased ProQinase (Freiburg, Germany)
T1 sequence (Q99986 1-396): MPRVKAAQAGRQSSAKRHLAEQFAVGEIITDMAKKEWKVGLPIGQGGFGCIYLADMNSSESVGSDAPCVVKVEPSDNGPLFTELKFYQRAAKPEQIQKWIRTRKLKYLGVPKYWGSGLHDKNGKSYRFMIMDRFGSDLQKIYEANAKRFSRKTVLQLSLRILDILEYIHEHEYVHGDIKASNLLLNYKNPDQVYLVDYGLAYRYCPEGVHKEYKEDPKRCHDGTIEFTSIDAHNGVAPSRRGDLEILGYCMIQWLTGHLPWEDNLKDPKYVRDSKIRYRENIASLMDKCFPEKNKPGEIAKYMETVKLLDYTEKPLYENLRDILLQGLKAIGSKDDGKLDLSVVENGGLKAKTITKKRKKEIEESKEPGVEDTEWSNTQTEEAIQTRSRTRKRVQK
Method: (§1) The analysis was performed by ProQinase (Freiburg, Germany).

ABL1 = molecular target: T2, ABL1 (Homo sapiens, UniProt P00519)
T2 construct: purchased ProQinase (Freiburg, Germany)
Method: as §1

SRMS = molecular target: T3, SRMS (Homo sapiens, UniProt Q9H3Y6)
T3 construct: purchased ProQinase (Freiburg, Germany)
Method: as §1

CLK1 = molecular target: T4, CLK1 (Homo sapiens, UniProt P49759)
T4 construct: purchased ProQinase (Freiburg, Germany)
Method: as §1

SLK = molecular target: T5, SLK (Homo sapiens, UniProt Q9H2G2)
T5 construct: purchased ProQinase (Freiburg, Germany)
Method: as §1

TLK2 = molecular target: T6, TLK2 (Homo sapiens, UniProt Q86UE8)
T6 construct: purchased ProQinase (Freiburg, Germany)
Method: as §1

ITK = molecular target: T7, ITK (Homo sapiens, UniProt Q08881)
T7 construct: purchased ProQinase (Freiburg, Germany)
T7 sequence (Q08881 1-620): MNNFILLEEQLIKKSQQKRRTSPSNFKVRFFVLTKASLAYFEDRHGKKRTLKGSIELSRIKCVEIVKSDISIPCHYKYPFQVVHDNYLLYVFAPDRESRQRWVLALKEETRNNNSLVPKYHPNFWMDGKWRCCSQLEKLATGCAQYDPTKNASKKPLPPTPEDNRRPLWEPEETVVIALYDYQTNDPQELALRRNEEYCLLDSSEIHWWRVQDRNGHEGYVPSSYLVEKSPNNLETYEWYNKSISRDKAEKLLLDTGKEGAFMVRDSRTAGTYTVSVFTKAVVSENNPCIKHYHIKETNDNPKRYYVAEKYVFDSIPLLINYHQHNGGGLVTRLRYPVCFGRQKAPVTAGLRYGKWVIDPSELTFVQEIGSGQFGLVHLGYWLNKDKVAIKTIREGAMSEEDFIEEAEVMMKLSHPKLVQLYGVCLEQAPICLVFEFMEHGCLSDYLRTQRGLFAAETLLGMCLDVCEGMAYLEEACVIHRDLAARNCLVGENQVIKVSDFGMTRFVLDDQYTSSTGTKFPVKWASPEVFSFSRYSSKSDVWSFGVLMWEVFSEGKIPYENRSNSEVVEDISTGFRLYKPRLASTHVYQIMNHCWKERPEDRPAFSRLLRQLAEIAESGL
Method: as §1

BMX = molecular target: T8, BMX (Homo sapiens, UniProt P51813)
T8 construct: purchased ProQinase (Freiburg, Germany)
T8 sequence (P51813 1-675): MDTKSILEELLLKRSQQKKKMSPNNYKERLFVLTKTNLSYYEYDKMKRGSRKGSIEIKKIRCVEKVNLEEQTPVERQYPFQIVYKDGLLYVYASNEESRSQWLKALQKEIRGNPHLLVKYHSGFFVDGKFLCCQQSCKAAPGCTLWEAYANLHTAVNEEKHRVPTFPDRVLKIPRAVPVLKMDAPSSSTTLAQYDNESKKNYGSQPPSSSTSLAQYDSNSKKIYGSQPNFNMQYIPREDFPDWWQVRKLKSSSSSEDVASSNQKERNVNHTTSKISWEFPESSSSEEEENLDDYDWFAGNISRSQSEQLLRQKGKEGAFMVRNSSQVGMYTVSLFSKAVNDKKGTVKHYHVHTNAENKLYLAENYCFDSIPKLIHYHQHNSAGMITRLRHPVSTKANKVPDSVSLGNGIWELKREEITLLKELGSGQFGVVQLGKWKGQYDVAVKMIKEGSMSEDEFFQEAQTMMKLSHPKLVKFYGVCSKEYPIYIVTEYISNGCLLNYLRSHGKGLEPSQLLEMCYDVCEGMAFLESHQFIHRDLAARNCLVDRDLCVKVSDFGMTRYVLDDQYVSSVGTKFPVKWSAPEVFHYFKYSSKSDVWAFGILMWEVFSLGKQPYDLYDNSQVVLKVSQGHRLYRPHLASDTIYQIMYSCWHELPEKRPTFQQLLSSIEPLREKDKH
Method: as §1

TGFBR1 = molecular target: T9, TGFBR1 (Homo sapiens, UniProt P36897)
T9 construct: purchased ProQinase (Freiburg, Germany)
T9 sequence (P36897 34-503): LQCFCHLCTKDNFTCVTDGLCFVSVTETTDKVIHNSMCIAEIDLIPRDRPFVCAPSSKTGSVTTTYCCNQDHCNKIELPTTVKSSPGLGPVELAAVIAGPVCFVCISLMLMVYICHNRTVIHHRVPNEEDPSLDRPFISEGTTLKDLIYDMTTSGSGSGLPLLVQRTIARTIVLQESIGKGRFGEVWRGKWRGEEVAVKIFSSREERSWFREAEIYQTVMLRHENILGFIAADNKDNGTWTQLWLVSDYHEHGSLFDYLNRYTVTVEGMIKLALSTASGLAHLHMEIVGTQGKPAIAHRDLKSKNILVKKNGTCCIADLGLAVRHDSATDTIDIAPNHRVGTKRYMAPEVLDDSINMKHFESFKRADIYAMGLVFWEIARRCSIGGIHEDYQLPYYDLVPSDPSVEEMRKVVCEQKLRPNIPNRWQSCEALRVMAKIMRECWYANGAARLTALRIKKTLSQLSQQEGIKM
Method: as §1

T6 sequence (Q86UE8 whole entry): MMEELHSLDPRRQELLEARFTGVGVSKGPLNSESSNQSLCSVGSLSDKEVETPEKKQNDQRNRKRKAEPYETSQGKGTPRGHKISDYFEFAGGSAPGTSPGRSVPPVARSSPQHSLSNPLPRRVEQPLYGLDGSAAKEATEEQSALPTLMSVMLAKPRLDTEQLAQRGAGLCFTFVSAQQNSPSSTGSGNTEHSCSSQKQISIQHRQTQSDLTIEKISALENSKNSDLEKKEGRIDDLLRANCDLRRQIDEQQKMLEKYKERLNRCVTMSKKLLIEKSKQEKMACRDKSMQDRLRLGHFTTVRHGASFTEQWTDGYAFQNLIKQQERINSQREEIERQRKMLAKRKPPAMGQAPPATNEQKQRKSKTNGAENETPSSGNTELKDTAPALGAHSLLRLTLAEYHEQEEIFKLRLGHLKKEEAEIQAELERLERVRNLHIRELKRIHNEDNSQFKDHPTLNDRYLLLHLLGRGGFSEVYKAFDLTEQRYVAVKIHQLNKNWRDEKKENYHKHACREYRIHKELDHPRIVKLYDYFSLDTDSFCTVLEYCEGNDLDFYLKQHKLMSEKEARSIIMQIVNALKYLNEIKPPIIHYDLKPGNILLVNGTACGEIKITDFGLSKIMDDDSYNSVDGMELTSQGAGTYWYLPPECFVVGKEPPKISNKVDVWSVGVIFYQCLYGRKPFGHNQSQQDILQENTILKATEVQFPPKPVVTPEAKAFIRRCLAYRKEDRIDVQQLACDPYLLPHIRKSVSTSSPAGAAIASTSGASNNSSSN
T2 sequence (P00519 whole entry): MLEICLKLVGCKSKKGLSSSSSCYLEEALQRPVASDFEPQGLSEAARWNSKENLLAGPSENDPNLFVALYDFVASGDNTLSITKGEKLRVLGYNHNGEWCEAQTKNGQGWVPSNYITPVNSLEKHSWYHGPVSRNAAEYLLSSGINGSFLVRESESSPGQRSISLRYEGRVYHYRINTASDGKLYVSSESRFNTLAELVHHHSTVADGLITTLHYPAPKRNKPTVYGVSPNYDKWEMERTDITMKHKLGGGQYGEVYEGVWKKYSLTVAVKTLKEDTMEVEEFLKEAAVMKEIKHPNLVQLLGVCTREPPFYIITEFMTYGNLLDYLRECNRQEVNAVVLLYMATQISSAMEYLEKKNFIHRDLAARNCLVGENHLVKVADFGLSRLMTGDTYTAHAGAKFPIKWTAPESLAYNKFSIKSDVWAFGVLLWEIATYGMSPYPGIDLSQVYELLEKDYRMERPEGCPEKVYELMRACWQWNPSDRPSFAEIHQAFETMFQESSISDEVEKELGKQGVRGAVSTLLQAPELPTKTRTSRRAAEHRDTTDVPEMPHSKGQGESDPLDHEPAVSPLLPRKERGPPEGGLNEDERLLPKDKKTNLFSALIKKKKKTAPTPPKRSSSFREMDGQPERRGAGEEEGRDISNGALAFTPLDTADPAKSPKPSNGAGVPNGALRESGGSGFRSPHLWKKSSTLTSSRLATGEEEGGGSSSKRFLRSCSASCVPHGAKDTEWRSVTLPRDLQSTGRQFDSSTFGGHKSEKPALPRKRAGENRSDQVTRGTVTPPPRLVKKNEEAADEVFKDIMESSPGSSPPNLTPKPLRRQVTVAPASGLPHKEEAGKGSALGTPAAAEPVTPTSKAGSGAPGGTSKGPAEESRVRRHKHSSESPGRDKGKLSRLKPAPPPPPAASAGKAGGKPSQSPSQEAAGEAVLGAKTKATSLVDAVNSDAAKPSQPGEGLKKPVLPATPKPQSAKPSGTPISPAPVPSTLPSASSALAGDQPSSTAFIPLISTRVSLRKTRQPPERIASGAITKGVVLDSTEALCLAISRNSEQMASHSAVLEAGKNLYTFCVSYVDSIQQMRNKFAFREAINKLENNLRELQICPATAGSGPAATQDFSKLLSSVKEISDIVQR
T5 sequence (Q9H2G2 whole entry): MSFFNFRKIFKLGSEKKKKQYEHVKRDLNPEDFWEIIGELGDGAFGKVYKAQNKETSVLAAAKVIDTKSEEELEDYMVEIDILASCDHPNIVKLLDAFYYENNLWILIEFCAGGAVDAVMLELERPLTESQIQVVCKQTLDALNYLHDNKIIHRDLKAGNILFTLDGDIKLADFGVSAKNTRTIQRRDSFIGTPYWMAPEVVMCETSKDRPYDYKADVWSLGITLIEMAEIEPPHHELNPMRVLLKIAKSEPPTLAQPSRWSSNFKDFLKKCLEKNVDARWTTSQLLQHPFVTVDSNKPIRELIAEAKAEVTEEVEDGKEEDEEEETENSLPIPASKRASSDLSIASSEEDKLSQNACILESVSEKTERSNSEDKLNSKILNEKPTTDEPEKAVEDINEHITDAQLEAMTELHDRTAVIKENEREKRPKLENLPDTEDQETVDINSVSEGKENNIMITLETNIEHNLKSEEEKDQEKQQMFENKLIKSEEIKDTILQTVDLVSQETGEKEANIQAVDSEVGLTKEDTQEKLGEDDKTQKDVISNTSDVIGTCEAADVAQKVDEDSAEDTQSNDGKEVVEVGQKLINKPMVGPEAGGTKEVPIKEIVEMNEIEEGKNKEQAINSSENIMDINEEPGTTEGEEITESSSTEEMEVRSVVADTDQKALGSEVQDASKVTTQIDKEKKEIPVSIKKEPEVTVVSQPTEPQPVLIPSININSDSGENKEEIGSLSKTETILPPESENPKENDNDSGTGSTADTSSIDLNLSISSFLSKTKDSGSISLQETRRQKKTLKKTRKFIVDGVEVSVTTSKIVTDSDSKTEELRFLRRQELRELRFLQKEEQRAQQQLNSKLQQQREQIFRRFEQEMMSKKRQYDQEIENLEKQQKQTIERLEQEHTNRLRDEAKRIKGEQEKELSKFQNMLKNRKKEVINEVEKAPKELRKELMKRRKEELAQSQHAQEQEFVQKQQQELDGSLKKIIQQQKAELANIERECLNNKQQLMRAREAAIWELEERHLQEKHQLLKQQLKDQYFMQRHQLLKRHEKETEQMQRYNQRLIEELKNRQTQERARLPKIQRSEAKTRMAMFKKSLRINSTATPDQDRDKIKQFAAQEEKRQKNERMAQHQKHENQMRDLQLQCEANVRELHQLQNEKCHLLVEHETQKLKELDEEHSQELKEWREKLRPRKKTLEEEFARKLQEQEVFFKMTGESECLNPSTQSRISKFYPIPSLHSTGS
T3 sequence (Q9H3Y6 whole entry): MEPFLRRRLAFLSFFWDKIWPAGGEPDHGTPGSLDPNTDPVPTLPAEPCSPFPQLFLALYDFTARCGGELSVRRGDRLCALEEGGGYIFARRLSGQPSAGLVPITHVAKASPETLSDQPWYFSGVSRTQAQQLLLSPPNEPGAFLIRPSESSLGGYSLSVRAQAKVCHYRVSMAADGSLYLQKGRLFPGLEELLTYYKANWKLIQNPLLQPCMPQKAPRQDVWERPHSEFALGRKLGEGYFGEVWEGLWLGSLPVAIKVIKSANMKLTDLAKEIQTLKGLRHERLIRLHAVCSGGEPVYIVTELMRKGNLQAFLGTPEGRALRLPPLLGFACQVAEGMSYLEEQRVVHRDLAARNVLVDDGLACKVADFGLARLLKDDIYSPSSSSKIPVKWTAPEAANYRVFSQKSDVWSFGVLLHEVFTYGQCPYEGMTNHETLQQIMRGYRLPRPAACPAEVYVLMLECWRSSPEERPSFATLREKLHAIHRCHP
T4 sequence (P49759 whole entry): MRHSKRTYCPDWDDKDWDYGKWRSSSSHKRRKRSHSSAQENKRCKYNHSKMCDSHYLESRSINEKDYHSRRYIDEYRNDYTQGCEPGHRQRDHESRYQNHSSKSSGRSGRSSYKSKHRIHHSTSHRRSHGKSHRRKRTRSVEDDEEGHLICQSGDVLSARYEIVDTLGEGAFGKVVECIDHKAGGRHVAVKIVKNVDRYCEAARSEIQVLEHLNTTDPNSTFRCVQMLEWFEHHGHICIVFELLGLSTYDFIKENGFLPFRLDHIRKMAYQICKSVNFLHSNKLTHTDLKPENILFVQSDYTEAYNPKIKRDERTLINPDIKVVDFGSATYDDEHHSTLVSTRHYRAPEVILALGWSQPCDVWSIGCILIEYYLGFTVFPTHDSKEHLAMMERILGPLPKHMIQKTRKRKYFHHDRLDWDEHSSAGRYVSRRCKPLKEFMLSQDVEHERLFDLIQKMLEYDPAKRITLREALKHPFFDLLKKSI

| Structure (SMILES) | Residual activity (VRK1; 1.0E-05 M) | Residual activity (VRK1; 1.0E-06 M) | Residual activity (ABL1; 1.0E-05 M) | Residual activity (ABL1; 1.0E-06 M) | Residual activity (SRMS; 1.0E-05 M) | Residual activity (SRMS; 1.0E-06 M) | Residual activity (CLK1; 1.0E-05 M) | Residual activity (CLK1; 1.0E-06 M) | Residual activity (SLK; 1.0E-05 M) | Residual activity (SLK; 1.0E-06 M) | Residual activity (TLK2; 1.0E-05 M) | Residual activity (TLK2; 1.0E-06 M) | Residual activity (ITK; 1.0E-05 M) | Residual activity (ITK; 1.0E-06 M) | Residual activity (BMX; 1.0E-05 M) | Residual activity (BMX; 1.0E-06 M) | Residual activity (TGFBR1; 1.0E-05 M) | Residual activity (TGFBR1; 1.0E-06 M) |
| --- | --- | --- | --- | --- | --- | --- | --- | --- | --- | --- | --- | --- | --- | --- | --- | --- | --- | --- |
| O=C(Cc1ccccc1)Nc1ccc(F)c(Nc2ccc3c(c2)CCCCC3=O)c1 [Compound 100] | 103 % of control | 102 % of control | 88 % of control | 90 % of control | 93 % of control | 102 % of control | 79 % of control | 99 % of control | 93 % of control | 98 % of control | 162 % of control | 135 % of control | 75 % of control | 94 % of control | 71 % of control | 111 % of control | 88 % of control | 95 % of control |
| O=C(Nc1ccc(F)c(Nc2ccc3c(c2)CCCCC3=O)c1)c1cccc(F)c1 [Compound 109] | 130 % of control | 100 % of control | 91 % of control | 91 % of control | 97 % of control | 98 % of control | 96 % of control | 105 % of control | 91 % of control | 94 % of control | 207 % of control | 120 % of control | 82 % of control | 93 % of control | 83 % of control | 100 % of control | 91 % of control | 88 % of control |
